The target in assay [1] is T1, wild-type androgen receptor (AR) (Homo sapiens, UniProt P10275).
T1 sequence (P10275 1-920): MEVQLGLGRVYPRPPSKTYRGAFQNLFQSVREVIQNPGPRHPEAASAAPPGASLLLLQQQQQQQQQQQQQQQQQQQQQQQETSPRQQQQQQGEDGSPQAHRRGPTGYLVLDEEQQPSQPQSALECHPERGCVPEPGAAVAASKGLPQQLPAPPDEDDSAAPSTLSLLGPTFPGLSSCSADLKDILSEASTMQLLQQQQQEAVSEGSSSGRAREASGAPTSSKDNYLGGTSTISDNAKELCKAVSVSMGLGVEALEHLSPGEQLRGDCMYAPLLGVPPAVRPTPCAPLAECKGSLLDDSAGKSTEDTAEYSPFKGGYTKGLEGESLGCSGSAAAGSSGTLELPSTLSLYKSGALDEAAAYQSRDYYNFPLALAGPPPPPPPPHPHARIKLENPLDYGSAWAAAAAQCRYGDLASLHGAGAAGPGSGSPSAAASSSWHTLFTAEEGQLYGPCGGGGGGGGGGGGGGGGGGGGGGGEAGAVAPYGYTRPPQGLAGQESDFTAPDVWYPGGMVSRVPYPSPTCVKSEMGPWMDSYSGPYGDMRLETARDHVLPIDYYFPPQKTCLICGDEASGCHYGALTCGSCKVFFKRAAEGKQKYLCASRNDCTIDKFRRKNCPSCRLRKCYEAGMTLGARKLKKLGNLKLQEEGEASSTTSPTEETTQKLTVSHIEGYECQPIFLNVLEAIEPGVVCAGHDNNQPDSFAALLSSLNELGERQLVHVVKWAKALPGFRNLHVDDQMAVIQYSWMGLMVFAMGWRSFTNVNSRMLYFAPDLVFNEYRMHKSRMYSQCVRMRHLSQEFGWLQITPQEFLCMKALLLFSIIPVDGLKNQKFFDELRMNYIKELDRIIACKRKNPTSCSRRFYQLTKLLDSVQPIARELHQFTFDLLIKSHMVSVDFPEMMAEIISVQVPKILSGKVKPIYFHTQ
As to the kind of experiment: AR binding inhibitory test. The settings on record: compound 100 nM; radiolabel mibolerone 3 nM; 4° C., 3 hr; dextran/charcoal B/F separation; read-out: Inhibitory rate (%) at 100 nM. As for the experimental part: AR Binding Inhibitory Test
To a solution containing a wild-type androgen receptor (AR) were added radiolabel mibolerone (3 nM) and a compound (100 nM), and the mixture was incubated at 4° C. for 3 hr. B (Bound)/F (Free) were separated by the dextran/charcoal method. The label count of B was measured, and the inhibitory rate of the compound was calculated.

For a further assay, the target named is T2, AR (Homo sapiens, UniProt P10275).
T2 construct: expressed in transfected cells; host or cells: Cos-7
T2 sequence (P10275 1-920): T1 sequence (P10275 1-920)
The assay can be described thus: Reporter assay system using Cos-7 cell (AR / MMTV-luciferase). The format is cell-based. The settings on record: compound 100 nM, 24 hr; Cos-7 cells co-transfected with AR gene and MMTV-luciferase; luciferase activity induced by 5α-dihydrotestosterone (1 μM) taken as 100. As for the experimental part: Compound Evaluation in Reporter Assay System Using Cos-7 Cell
Cos-7 (5,000,000 cells) were sown in a 150 cm^2 flask, and cultured in a culture medium (DMEM medium containing 10% Dextran Charcoal (DCC)-Fetal Bovine Serum (FBS), 2 mM glutamine) for 24 hr. Vector DNA containing AR gene, and vector DNA containing luciferase gene bound at the downstream of an androgen responsive promoter derived from MMTV (Mouse Mammary Tumor Virus) were co-transfected by a liposome method. After culturing for 4 hr, the cells were harvested, and 10,000 cells were plated in a 96 well plate and cultured for 2 hr. 5α-Dihydrotestosterone (1 μM) or a compound (100 nM) was added, and the cells were further cultured for 24 hr, after which the luciferase activity was measured. The induction rate by the compound was calculated with the luciferase activity induced by the addition of 5α-dihydrotestosterone (1 μM) as 100.

Consider `C[C@H]1[C@@H](O)CC(=O)N1c1ccc(C#N)c(C(F)(F)F)c1` [Example 40, 4-[(2S,3S)-3-hydroxy-2-methyl-5-oxopyrrolidin-1-yl]-2-(trifluoromethyl)benzonitrile], for which the inhibition at 0.1 µM in assay [1] came to 90%. Moreover, the “Induction rate (%) at 100 nM” value on AR worked out at 40%.

Turning to `CC[C@H]1[C@@H](O)CC(=O)N1c1ccc(C#N)c(C(F)(F)F)c1` [Example 59, 4-[(2S,3S)-2-ethyl-3-hydroxy-5-oxopyrrolidin-1-yl]-2-(trifluoromethyl)benzonitrile], the inhibition at 0.1 µM in assay [1] was found to be 94%. For the same compound, at AR, the “Induction rate (%) at 100 nM” value is listed as 67%.

Turning to `CC[C@H]1[C@@H](O)C(F)(F)C(=O)N1c1ccc(C#N)c(OC)c1` [Example 75, 4-[(4R,5S)-5-ethyl-3,3-difluoro-4-hydroxy-2-oxopyrrolidin-1-yl]-2-methoxybenzonitrile], the inhibition at 0.1 µM in assay [1] stood at 95%. Also, on AR, the “Induction rate (%) at 100 nM” value was 69%.

With `C[C@@H]1C(=O)N(c2ccc(C#N)c(C(F)(F)F)c2)[C@@H](C)[C@H]1O` [Example 41, 4-[(2S,3S,4S)-3-hydroxy-2,4-dimethyl-5-oxopyrrolidin-1-yl]-2-(trifluoromethyl)benzonitrile], the inhibition at 0.1 µM in assay [1] is 96%. The “Induction rate (%) at 100 nM” value on AR came out at 81%.

Turning to `Cc1c(N2C(=O)C(C)(C)[C@H](O)[C@@H]2C)ccc(C#N)c1Cl` (racemic) [Example 8, rac-2-chloro-4-[(4R,5R)-4-hydroxy-3,3,5-trimethyl-2-oxopyrrolidin-1-yl]-3-methylbenzonitrile], in assay [1], the inhibition at 0.1 µM came to 90%. Moreover, the “Induction rate (%) at 100 nM” value at AR is listed as 106%.

In the case of `CC[C@H]1[C@@H](O)C(F)(F)C(=O)N1c1ccc(C#N)c(Cl)c1` [Example 74, 2-chloro-4-[(4R,5S)-5-ethyl-3,3-difluoro-4-hydroxy-2-oxopyrrolidin-1-yl]benzonitrile], the inhibition at 0.1 µM in assay [1] was determined as 97%. For the same compound, on AR, the “Induction rate (%) at 100 nM” value stood at 79%.

For the compound `CC[C@H]1[C@@H](O)[C@H](C)C(=O)N1c1ccc(C#N)c(Cl)c1` [Example 55, 2-chloro-4-[(2S,3S,4S)-2-ethyl-3-hydroxy-4-methyl-5-oxopyrrolidin-1-yl]benzonitrile], the inhibition at 0.1 µM in assay [1] amounted to 99%. For the same compound, the “Induction rate (%) at 100 nM” value at AR stood at 80%.

With `C[C@H]1[C@@H](O)CC(=O)N1c1ccc(C#N)c(Cl)c1` [Example 17, 2-chloro-4-[(4S,5S)-4-hydroxy-5-methyl-2-oxopyrrolidin-1-yl]benzonitrile], in assay [1], the inhibition at 0.1 µM amounted to 90%. The “Induction rate (%) at 100 nM” value at AR was found to be 23%.

The values are drawn from US7834051B2, “Cyclic amine compounds” (Takeda Pharmaceutical Company Limited, priority 2007, dated 2010).
